These results are taken from paper PMC3236199, “Development of Derivatives of 3, 3′-Diindolylmethane as Potent Leishmania donovani Bi-Subunit Topoisomerase IB Poisons” (PLoS ONE, 2011).

This experiment deals with LdTOP1LS. Briefly: Plasmid cleavage assay. The experiment is classed as biochemical, Leishmania donovani. The settings on record: 20 µM, pHOT1 DNA. The method, then:
Cleavage assay was carried out as described previously. Briefly, 50 fmol of pHOT1 supercoiled DNA (containing topoisomerase I cleavage site) and 100 fmol of reconstituted LdTOP1LS were incubated in standard reaction mixture (50 µl) containing 50 mM Tris/HCl (pH 7.5), 100 mM KCl, 10 mM MgCl2, 0.5 mM DTT, 0.5 mM EDTA and 30 µg/ml BSA in the presence of various concentrations of drugs at 37°C for 30 min. The reactions were terminated by adding 1% SDS and 150 µg/ml proteinase K and further incubated for 1 h at 37°C. DNA samples were electrophoresed in a 1% agarose gel containing 0.5 µg/ml EtBr.
The effect of DIM and its derivatives on L. donovani topoisomerase I was examined by plasmid DNA cleavage assay as described. The topoisomerase reaction has three general mechanistic steps: (i) binding of enzyme to the substrate DNA, (ii) single strand breakage and subsequent strand rotation through the break leading to change in linking number, and (iii) strand religation. The second step of reaction is the introduction of a single-stranded nick in the phosphodiester bond of the DNA, through which an intact strand is allowed to pass. […]

Each structure is given as a SMILES string.

Regarding `COc1ccc2[nH]cc(Cc3c[nH]c4ccc(OC)cc34)c2c1` [DMODIM, 5,5′-dimethoxy 3,3′-diindolyl methane], the “conversion of closed circular DNA (form I) to nicked circular DNA (form II)” value is on record as “didn't cause conversion of all the form I DNA to form II”.
